Measured values: patent US12643887B2, “Heterocyclic derivatives with cardiomyocyte proliferation activity for treatment of heart diseases” (Tongji University, priority 2019, dated 2026)

Legend:
Format in all cases: biochemical
[1] = biological target: T1, human DYRK1A (Homo sapiens, UniProt Q13627); test: DYRK1A enzyme assay (ADP-Glo); conditions: ADP-Glo, ATP 60 μM; read-out: DYRK1A IC50
T1 construct: Recombinant full-length DYRK1A (expressed in E. Coli cells with an N-terminal GST tag); GST (N); purchased SignalChem D09-10G; host or cells: E. coli
Method: The ability of compounds to inhibit human DYRK1A kinase activities was determined using a commercially available ADP-Glo™ Kinase Assay kit (Promega, Cat #V9102) according to the manufacturer's protocol.
Recombinant full-length DYRK1A (expressed in E. Coli cells with an N-terminal GST tag) was purchased from SignalChem (Cat #D09-10G). The DYRK substrate peptide (DYRKtide, sequence: […]) was purchased from SignalChem (Cat #D96-58). This assay, run in a 384-well plate format, is a generic method for measuring kinase activities using an ADP-Glo Kinase Assay Kit. The basic assay procedure involves two steps: (1) Enzymatic step: inhibitors are incubated with the kinase and then ATP (included in the ADP-Glo Kinase Assay Kit) and the DYRKtide are added to start the enzymatic reaction; (2) Detection step: after the kinase reaction, first ADP-Glo™ Reagent is added to terminate the kinase reaction and deplete the remaining ATP. Second, the Kinase Detection Reagent is added to simultaneously convert ADP to ATP and allow the newly synthesized ATP to be measured using a luciferase/luciferin reaction. The light generated is measured using a luminometer.
(§1) Briefly, DYRK1A (3 nM) in the enzymatic buffer solutions (40 mM Tris, pH 7.5, 20 mM MgCl2, 0.1 mg/ml BSA, 50 μM DTT) were mixed with various concentrations of inhibitors (dissolved in 100% DMSO). These solutions were incubated for 30 minutes at 25° C., and subsequently a mixture of substrate peptide and ATP was added with the final peptide and ATP concentrations at 20 μM and 60 μM, respectively. The final reaction mixture of enzyme-substrate-ATP-compound was incubated for 60 minutes at 25° C.
(§2) Afterwards ADP-Glo™ Reagent was added and the mixture was incubated at 25° C. for 60 minutes. Then Kinase Detection Reagent was added and the final mixture was incubated at 25° C. for 60 minutes. The luminescence signal of the final solution was measured on an Envision instrument (PerkinElmer). The percent (%) inhibition at each concentration of a compound is calculated relative to the luminescence signal in the Max and Min control wells contained within each assay plate. […] The concentrations and percent inhibition values for a test compound are plotted and the concentration of the compound required to achieve 50% inhibition (IC50) is determined with a four-parameter logistic dose response equation.

[2] = biological target: T2, human CLK1 (Homo sapiens, UniProt P49759); test: CLK1 enzyme assay (ADP-Glo); conditions: ADP-Glo, ATP 10 μM; read-out: CLK1 IC50
T2 construct: Recombinant human CLK1 (129-end); GST (N); purchased SignalChem C57-11G; host or cells: Sf9 insect cells
Method: The ability of compounds to inhibit human CLK1 kinase activities was determined using a commercially available ADP-Glo™ Kinase Assay kit (Promega, Cat #V9102) according to the manufacturer's protocol.
(§3) Recombinant human CLK1 (129-end) (expressed in Sf9 insect cells with an N-terminal GST tag) was purchased from SignalChem (Cat #C57-11G). Recombinant full length human MBP (expressed in E. Coli cells with an N-terminal GST tag.) was purchased from SignalChem (Cat #M42-54G). This assay, run in a 384-well plate format, is a generic method for measuring kinase activities using an ADP-Glo Kinase Assay Kit. The basic assay procedure involves two steps: (1) Enzymatic step: inhibitors are incubated with the kinase and then ATP (included in the ADP-Glo Kinase Assay Kit) and the MBP protein are added to start the enzymatic reaction; (2) Detection step: after the kinase reaction, first ADP-Glo™ Reagent is added to terminate the kinase reaction and deplete the remaining ATP. Second, the Kinase Detection Reagent is added to simultaneously convert ADP to ATP and allow the newly synthesized ATP to be measured using a luciferase/luciferin reaction. The light generated is measured using a luminometer.
as §1, with “Briefly, CLK1 (16” for “Briefly, DYRK1A (3”, “at 2” for “at 20”, “and 10” for “and 60”
as §2

[3] = biological target: T3, human HIPK1 (Homo sapiens, UniProt Q86Z02); test: HIPK1 enzyme assay (ADP-Glo); conditions: ADP-Glo, ATP 5 μM; read-out: HIPK1 IC50
T3 construct: Recombinant human HIPK1 (156-555); GST (N); purchased SignalChem H03-11G; host or cells: Sf9 insect cells
Method: The ability of compounds to inhibit human HIPK1 kinase activities was determined using a commercially available ADP-Glo™ Kinase Assay kit (Promega, Cat #V9102) according to the manufacturer's protocol.
as §3, with “HIPK1 (156-555)” for “CLK1 (129-end)”, “#H03-11G).” for “#C57-11G).”, “tag)” for “tag.)”
as §1, with “Briefly, HIPK1 (4” for “Briefly, DYRK1A (3”, “at 0.05 mg/ml” for “at 20 μM”, “and 5” for “and 60”, “for 90” for “for 60”
Afterwards ADP-Glo™ Reagent was added and the mixture was incubated at 25° C. for 60 minutes. Then Kinase Detection Reagent was added, and the final mixture was incubated at 25° C. for 60 minutes. The luminescence signal of the final solution was measured on an Envision instrument (PerkinElmer). The percent (%) inhibition at each concentration of a compound is calculated relative to the luminescence signal in the Max and Min control wells contained within each assay plate. […] The concentrations and percent inhibition values for a test compound are plotted and the concentration of the compound required to achieve 50% inhibition (IC50) is determined with a four-parameter logistic dose response equation.

T2 sequence (P49759 129-484 limits assumed): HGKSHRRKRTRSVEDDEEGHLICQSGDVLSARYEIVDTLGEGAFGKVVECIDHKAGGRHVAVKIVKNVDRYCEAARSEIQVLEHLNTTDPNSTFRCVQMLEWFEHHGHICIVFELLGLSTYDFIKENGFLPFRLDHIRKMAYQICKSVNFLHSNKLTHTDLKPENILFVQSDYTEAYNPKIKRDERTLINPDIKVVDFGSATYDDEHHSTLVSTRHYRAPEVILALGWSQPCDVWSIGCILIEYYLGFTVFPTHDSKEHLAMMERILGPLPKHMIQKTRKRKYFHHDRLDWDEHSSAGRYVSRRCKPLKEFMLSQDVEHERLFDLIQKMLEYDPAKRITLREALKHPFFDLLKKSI
T3 sequence (Q86Z02 156-555): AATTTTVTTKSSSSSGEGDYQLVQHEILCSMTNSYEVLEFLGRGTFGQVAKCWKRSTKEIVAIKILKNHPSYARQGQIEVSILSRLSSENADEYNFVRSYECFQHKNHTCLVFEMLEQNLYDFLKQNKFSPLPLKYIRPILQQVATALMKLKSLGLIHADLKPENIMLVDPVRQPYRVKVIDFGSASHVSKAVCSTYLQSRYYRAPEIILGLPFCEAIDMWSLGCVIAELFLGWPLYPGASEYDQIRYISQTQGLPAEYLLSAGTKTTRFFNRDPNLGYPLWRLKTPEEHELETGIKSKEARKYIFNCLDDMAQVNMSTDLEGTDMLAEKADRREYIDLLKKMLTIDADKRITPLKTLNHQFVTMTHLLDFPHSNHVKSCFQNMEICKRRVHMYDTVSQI

Structure (SMILES) | IC50 [1] [nM] | IC50 [2] [nM] | IC50 [3] [nM]
CN(C1=N/C(=C\c2ccc3c(c2)OCO3)C(=O)N1)c1ccccc1 [Example 1, (Z)-5-(benzo[d][1,3]dioxol-5-ylmethylene)-2-(methyl(phenyl)amino)-3,5-dihydro-4H-imidazol-4-one] | 100 to 1000 | 100 to 1000 | > 10000
O=C1/C(=C/c2ccc3c(c2)OCO3)N=C(N(Cc2ccccc2)c2ccccc2)N1Cc1ccccc1 [Example 2, (Z)-5-(benzo[d][1,3]dioxol-5-ylmethylene)-3-benzyl-2-(benzyl(phenyl)amino)-3,5-dihydro-4H-imidazol-4-one] | 1000 to 10000 | 1000 to 10000 | > 10000
CN1C(=O)/C(=C/c2ccc3c(c2)OCO3)N=C1N(C)c1ccccc1 [Example 3, (Z)-5-(benzo[d][1,3]dioxol-5-ylmethylene)-3-methyl-2-(methyl(phenyl)amino)-3,5-dihydro-4H-imidazol-4-one] | 1000 to 10000 | 1000 to 10000 | > 10000
O=C1NC(Nc2ccccc2)=N/C1=C\c1ccc2ncsc2c1 [Example 6, (Z)-5-(benzo[d]thiazol-6-ylmethylene)-2-(phenylamino)-3,5-dihydro-4H-imidazol-4-one] |  | < 100 | 100 to 1000
CN(C1=N/C(=C\c2ccc3ncsc3c2)C(=O)N1)c1ccccc1 [Example 7, (Z)-5-(benzo[d]thiazol-6-ylmethylene)-2-(methyl(phenyl)amino)-3,5-dihydro-4H-imidazol-4-one] | 100 to 1000 | 100 to 1000 | 1000 to 10000
CN(C1=N/C(=C\c2ccc3c(c2)OCCO3)C(=O)N1)c1ccccc1 [Example 8, (Z)-5-((2,3-dihydrobenzo[b][1,4]dioxin-6-yl)methylene)-2-(methyl(phenyl)amino)-3,5-dihydro-4H-imidazol-4-one] | 1000 to 10000 | 1000 to 10000 | > 10000
O=C1NC(Nc2ccccc2)=N/C1=C\c1ccc(=O)[nH]c1 [Example 9, (Z)-5-((5-oxo-2-(phenylamino)-1,5-dihydro-4H-imidazol-4-ylidene)methyl)pyridin-2(1H)-one] | 100 to 1000 | 100 to 1000 | > 10000
O=C1NC(N(CC2CC2)c2ccccc2)=N/C1=C\c1ccc2c(c1)OCO2 [Example 10, (Z)-5-(benzo[d][1,3]dioxol-5-ylmethylene)-2-((cyclopropylmethyl)(phenyl)amino)-3,5-dihydro-4H-imidazol-4-one] | 100 to 1000 | 100 to 1000 | > 10000
CN(CC1CC1)C1=N/C(=C\c2ccc3c(c2)OCO3)C(=O)N1 [Example 11, (Z)-5-(benzo[d][1,3]dioxol-5-ylmethylene)-2-((cyclopropylmethyl)(methyl)amino)-3,5-dihydro-4H-imidazol-4-one] | 100 to 1000 | 100 to 1000 | > 10000
COc1ccc(N(C)C2=N/C(=C\c3ccc4c(c3)OCO4)C(=O)N2)cc1 [Example 12, (Z)-5-(benzo[d][1,3]dioxol-5-ylmethylene)-2-((4-methoxyphenyl)(methyl)amino)-3,5-dihydro-4H-imidazol-4-one] | 100 to 1000 | 100 to 1000 | > 10000
O=C1NC(N(CCO)c2ccccc2)=N/C1=C\c1ccc2c(c1)OCO2 [Example 13, (Z)-5-(benzo[d][1,3]dioxol-5-ylmethylene)-2-((2-hydroxyethyl)(phenyl)amino)-3,5-dihydro-4H-imidazol-4-one] | 100 to 1000 | 100 to 1000 | 1000 to 10000
COc1ccc(NC2=N/C(=C\c3ccc4ncsc4c3)C(=O)N2)cc1 [Example 25, (Z)-5-(benzo[d]thiazol-6-ylmethylene)-2-((4-methoxyphenyl)amino)-3,5-dihydro-4H-imidazol-4-one] |  | < 100 | 100 to 1000
O=C1NC(NCc2ccccc2)=N/C1=C\c1ccc2ncsc2c1 [Example 31, (Z)-5-(benzo[d]thiazol-6-ylmethylene)-2-(benzylamino)-3,5-dihydro-4H-imidazol-4-one] |  |  | 100 to 1000
O=C1NC(NCC2CC2)=N/C1=C\c1ccc2ncsc2c1 [Example 34, (Z)-5-(benzo[d]thiazol-6-ylmethylene)-2-((cyclopropylmethyl)amino)-3,5-dihydro-4H-imidazol-4-one] |  |  | 1000 to 10000
O=C1NC(Nc2ccc(Cl)cc2)=N/C1=C\c1ccc2ncsc2c1 [Example 40, (Z)-5-(benzo[d]thiazol-6-ylmethylene)-2-((4-chlorophenyl)amino)-3,5-dihydro-4H-imidazol-4-one] |  | < 100 | 1000 to 10000
O=C1NC(Nc2ccc3ncsc3c2)=N/C1=C\c1ccc2ncsc2c1 [Example 48, (Z)-2-(benzo[d]thiazol-6-ylamino)-5-(benzo[d]thiazol-6-ylmethylene)-3,5-dihydro-4H-imidazol-4-one] |  | < 100 | 100 to 1000
O=C1NC(Nc2ccc3ncsc3c2)=N/C1=C\c1ccc2scnc2c1 [Example 57, (Z)-5-(benzo[d]thiazol-5-ylmethylene)-2-(benzo[d]thiazol-6-ylamino)-3,5-dihydro-4H-imidazol-4-one] |  | < 100 | < 100
O=C1NC(Nc2ccc3nccnc3c2)=N/C1=C\c1ccc2ncsc2c1 [Example 82, (Z)-5-(benzo[d]thiazol-6-ylmethylene)-2-(quinoxalin-6-ylamino)-3,5-dihydro-4H-imidazol-4-one] |  | < 100 | > 10000
